{
  "source": "paper PMC9315535",
  "about": "(Microorganisms, 2022)",
  "key": {"[1]": {"system": "CHIKV nsP2 protease", "parameters": "method as in PMID 33661906", "conditions": "Targeted virus CHIKV; cited from earlier work"}, "[2]": {"system": "ZIKV NS2B/NS3 protease", "conditions": "Targeted virus ZIKV; cited from earlier work"}, "[3]": {"system": "YFV NS2B/NS3 protease", "conditions": "cited from earlier work"}, "[4]": {"target": "T1, YFV NS2B/NS3pro (Yellow fever virus, UniProt Q1X881)", "test": "biochemical", "assay_type": "binding"}, "[5]": {"system": "Vero cells"}, "[6]": {"test": "in vitro", "conditions": "Cercopithecus aethiops (African green monkey)"}, "[7]": {"target": "T2, CHIKV nsP2pro (Chikungunya virus, UniProt Q8JUX6)", "test": "biochemical"}, "[8]": {"target": "T3, ZIKV NS2B/NS3pro (Zika virus, UniProt A0A140DLX4)", "test": "Thermal unfolding followed by Trp fluorescence, ZIKV protease", "assay_type": "binding", "conditions": "protease alone 43 °C"}, "[9]": {"target": "T1, YFV NS2B/NS3pro", "test": "biochemical"}, "[10]": {"target": "T3, ZIKV NS2B/NS3pro", "test": "biochemical", "assay_type": "binding"}, "[11]": {"system": "Zika virus (strain ZIKVBR)", "test": "Virucidal / time-of-drug addition plaque-forming assay, ZIKV", "assay_type": "cell-based", "conditions": "50 µM, Vero cells"}, "[12]": {"target": "T1, YFV NS2B/NS3pro", "assay_type": "binding"}, "[13]": {"conditions": "ref https://www.drugbank.ca/drugs/DB00140; cited from earlier work"}, "[14]": {"target": "T3, ZIKV NS2B/NS3pro", "test": "biochemical"}, "[15]": {"system": "Chikungunya virus (strain ECSA)", "test": "Virucidal / time-of-drug addition plaque-forming assay, CHIKV", "assay_type": "cell-based", "conditions": "50 µM, virus and compound incubated 1 h at RT, Vero cells"}, "[16]": {"system": "yellow fever virus (vaccinal strain)", "assay_type": "cell-based"}, "[17]": {"system": "serine protease of the human cytomegalovirus (HCMV)", "parameters": "method as in PMID 8639546", "conditions": "cited from earlier work"}, "[18]": {"target": "T2, CHIKV nsP2pro", "test": "Thermal unfolding followed by Trp fluorescence, CHIKV protease", "assay_type": "binding"}, "[19]": {"target": "T2, CHIKV nsP2pro", "test": "biochemical", "assay_type": "binding"}, "[20]": {"conditions": "read-out: Inhibition of protease activity, primary test"}},
  "data": [
    {"smiles": "COc1ccc([C@@H]2CC(=O)c3c(O)cc(O)cc3O2)cc1O", "note": "[Hesperetin]", "values": [
      {"measurement": "IC50", "setting": "[1]", "result": 2500, "unit": "nM"},
      {"measurement": "IC50", "setting": "[2]", "result": 12.6, "unit": "µM"},
      {"measurement": "IC50", "setting": "[3]", "result": 2000, "unit": "nM"}
    ]},
    {"smiles": "CO[C@@H]1[C@@H](OC(N)=O)[C@@H](O)[C@H](Oc2ccc3c(O)c(NC(=O)c4ccc(O)c(CC=C(C)C)c4)c(=O)oc3c2C)OC1(C)C", "note": "[Novobiocin]", "values": [
      {"measurement": "IC50", "setting": "[2]", "result": "[…]"}
    ]},
    {"smiles": "COc1ccc2c(O[C@@H]3C[C@H]4C(=O)N[C@]5(C(=O)NS(=O)(=O)C6CC6)C[C@H]5/C=C\\CCCCN(C)C(=O)[C@@H]4C3)cc(-c3nc(C(C)C)cs3)nc2c1C", "note": "[Simeprevir]", "values": [
      {"measurement": "IC50", "setting": "[2]", "result": 2.6, "unit": "µM"}
    ]},
    {"smiles": "Cc1cc2nc3c(=O)[nH]c(=O)nc-3n(C[C@H](O)[C@H](O)[C@H](O)CO)c2cc1C", "note": "[riboflavin]", "values": [
      {"measurement": "Excitation Shift", "setting": "[4]", "result": "blue edge excitation shift"},
      {"measurement": "Kd", "setting": "[4]", "result": "18.2 ± 3.9", "unit": "µM"},
      {"measurement": "Effect on cell viability", "setting": "[5]", "result": "does not affect cell viability"},
      {"measurement": "CC50", "setting": "[6]", "result": 72.3, "unit": "µM"},
      {"measurement": "IC50", "setting": "[7]", "result": "93 ± 5.7", "unit": "nM"},
      {"measurement": "Inhibition Mode", "setting": "[7]", "result": "competitive"},
      {"measurement": "LE (ligand efficiency)", "setting": "[7]", "result": 0.36},
      {"measurement": "Required concentration to inhibit protease (100%)", "setting": "[7]", "result": 5, "unit": "µM"},
      {"measurement": "inhibition at 1 µM", "setting": "[7]; [20]", "result": "~85", "unit": "%"},
      {"measurement": "inhibition at 20 µM", "setting": "[7]; [20]", "result": 100, "unit": "%"},
      {"measurement": "Tm of protease-riboflavin complex", "setting": "[8]", "result": 51, "unit": "°C"},
      {"measurement": "Final concentration to inhibit 100% of protease", "setting": "[9]", "result": 200, "unit": "µM"},
      {"measurement": "IC50", "setting": "[9]", "result": "45.7 ± 2.9", "unit": "µM"},
      {"measurement": "Inhibition Mode", "setting": "[9]", "result": "competitive"},
      {"measurement": "inhibition at 20 µM", "setting": "[9]; [20]", "result": 30, "unit": "%"},
      {"measurement": "Excitation Shift", "setting": "[10]", "result": "blue edge excitation shift"},
      {"measurement": "Kd", "setting": "[10]; KD ± STD", "result": 25.1, "unit": "µM"},
      {"measurement": "Prevention of virus entry (virucidal assay)", "setting": "[11]", "result": "not observed"},
      {"measurement": "Tm of protease-riboflavin complex", "setting": "[12]", "result": 51, "unit": "°C"},
      {"measurement": "ΔTm", "setting": "[12]", "result": 4, "unit": "°C"},
      {"measurement": "LogP", "setting": "[13]", "result": "−1.5"},
      {"measurement": "Inhibition Mode", "setting": "[14]", "result": "competitive"},
      {"measurement": "IC100", "setting": "[14]; 1 h, read-out: Final concentration to inhibit 100% of protease", "result": 220, "unit": "µM"},
      {"measurement": "IC50", "setting": "[14]; IC50 ± STD", "result": "79.4 ± 5", "unit": "µM"},
      {"measurement": "IC50", "setting": "[14]; pIC50", "result": 79.4, "unit": "µM"},
      {"measurement": "inhibition at 20 µM", "setting": "[14]; [20]", "result": 10, "unit": "%"},
      {"measurement": "Decrease of CHIKV replication, virucidal assay", "setting": "[15]", "result": 44.35, "unit": "%"},
      {"measurement": "Prevention of virus entry (virucidal assay)", "setting": "[16]", "result": "not observed"},
      {"measurement": "IC50", "setting": "[17]", "result": 300, "unit": "nM"},
      {"measurement": "Inhibition Mode", "setting": "[17]", "result": "competitive"},
      {"measurement": "Tm of protease-riboflavin complex", "setting": "[18]; protease alone 47 °C", "result": 52, "unit": "°C"},
      {"measurement": "ΔTm", "setting": "[18]; protein 10 µM, riboflavin 75 µM", "result": 5, "unit": "°C"},
      {"measurement": "Excitation Shift", "setting": "[19]", "result": "blue edge excitation shift"},
      {"measurement": "Kd", "setting": "[19]", "result": "2800 ± 700", "unit": "nM"}
    ]}
  ]
}
